Experimental data as given in US20250345277A1, “Ionizable Liposome, Preparation Thereof, and Application Thereof in Gene Delivery” (MAXIRNA (ZHEJIANG) TECHNOLOGY CO. LTD., priority 2021, published 2025).

What was measured:
[1] = Size and polydispersity index PDI of lipid nanoparticles (Malvern Zetasizer Nano ZS); assay type: physicochemical; conditions: LNP ionizable lipid/DOPE/cholesterol/DSPE-PEG2000 35/16/46.5/2.5 mol% encapsulating EGFP mRNA; for Particle Size: in nm (unit assumed)
Description: (§1) The ionizable lipid compound of Example 1 was dissolved in ethanol with DOPE, cholesterol and DSPE-PEG2000 (all purchased from AVT (Shanghai) Pharmaceutical Technology Co., Ltd.) at a molar ratio of 35:16:46.5:2.5 to prepare ethanol lipid solution, and enhanced green fluorescent protein (EGFP) mRNAs (Shanghai Maximna Pharmaceutical Engineering Co., Ltd., JN-4201) were diluted in 20 mM citrate buffer (pH=6.1) to obtain mRNA aqueous solution. Ethanol lipid solution and mRNA aqueous solution were mixed at a volume ratio of 1:3 by using a microfluidic device (Micro&Nano (Shanghai) Instrument Technology Co., Ltd., model: INano™ML), LNPs were prepared with a weight ratio of approximately 10:1 between total lipids and mRNAs. The medium was replaced by ultrafiltration, ethanol was removed and volumed with DPBS. Finally, the lipid nanoparticles were filtered through a 0.2 μm sterile filter to obtain a LNP formulation encapsulating eGFP mRNA using ionizable lipid/DOPE/cholesterol/DSPE-PEG2000 (35/16/46.5/2.5 mol %), the concentration of mRNAs being 0.002 mg/mL-0.5 mg/mL.
Using Malvern Zetasizer Nano ZS (Malvern UK), the size and polydispersity index PDI of lipid nanoparticles were measured at […].

[2] = Entrapment efficiency of LNP preparation encapsulating EGFP mRNA; assay type: physicochemical; conditions: LNP ionizable lipid/DOPE/cholesterol/DSPE-PEG2000 35/16/46.5/2.5 mol% encapsulating EGFP mRNA
Description: as §1, with “mg/mL. […]” for “mg/mL.”

[3] = test system: DC2.4 cells; assay: In vitro transfection of DC2.4 cells with EGFP mRNA LNP preparation (flow cytometry); assay type: cell-based, mouse; conditions: DC2.4 cells; for Cell Viability / Positive Rate (EGFP): EGFP mRNA LNP, 200 ng mRNA per well, flow cytometry; for Fluorescence Intensity: EGFP mRNA expression level, normalized based on the sample with the highest fluorescence intensity
Source text: The description is based on peripheral blood mononuclear cells PBMC (Shanghai Oribiotech Co., Ltd.), human peripheral blood leukemia T cell Jurkat (ATCC), tumor infiltrating lymphocyte TIL (isolated from resected tumor tissue of a liver cancer patient, the preparation method refers to CN114763530A), mouse bone marrow-derived dendritic cells DC2.4 (Cell Bank of the Chinese Academy of Sciences), and Chinese hamster ovary cells CHO (ATCC) were used as verified cell lines for liposome transfection. PBMC, Jurkat, and TIL cells grew in suspension, while DC2.4 and CHO cells grew by adherent culture. All the operation steps of cell culture must strictly abide by the prescribed procedures, and sterile reagents is used to perform aseptic operations under a sterile workbench. The main steps are as follows: • 1) Cell recovery: the preserved cell cryopreservation solution was taken out of the −80° C. refrigerator, and was immediately put in a 37° C. water bath for rapid and continuous shaking, and was completely melted within one minute. Fresh medium was added to the 15 mL centrifuge tube in advance, and the cell solution was added to the centrifuge tube in a biological safety cabinet. A centrifuge tube of the same quality was taken and placed symmetrically in a centrifuge, centrifuged at a low speed at 1200 rpm for 5 min. After centrifugation, the supernatant was removed, and an appropriate amount of medium was slowly added along the tube wall. After the cells were evenly dispersed by blowing gently, the cell suspension was pipette and added to the culture bottle prepared in advance. The state and distribution of the cells in the early stage of recovery were observed under a microscope. The culture bottle was placed in a 5% CO2 incubator and incubated at 37° C., and the recovery time was recorded. • 2) Cell subculture: Under the microscope, if the cell density in the field of view reaches 80%-90%, the cells can be subcultured. Adherent cells need to be digested with trypsin. In order to avoid the residual serum in the culture medium to reduce the activity of trypsin, DPBS solution was added to wash once after removing the original culture medium. After remove the DPBS solution, trypsin was added to degrade the protein at the junction between cells. This separates the cells for further culture. The cells were gently shaked evenly and put into the incubator for digestion for 2 min. Immediately after the digestion was completed, an appropriate amount of medium was added to the original petri dish to terminate the digestion. Finally, the cells were carefully blowed off using a pipette and blowed until they are evenly dispersed, and then inoculated and subcultured at a certain ratio according to the experimental requirements. […]
• 1) DC2.4 cells recovery: the frozen DC2.4 cells were taken out from the −80° C. refrigerator, put in a 37° C. water bath to quickly thaw the cells, added to the preheated medium after thawing, centrifuged at 1200 rpm for 5 min, the supernatant was discarded, and an appropriate amount of DMEM medium with 10% FBS was added to resuspend the recovered DC2.4, and placed in a 5% CO2 incubator at 37° C. for activation and culture. • 2) According to the experimental arrangement, DC2.4 cells were plated on a 24-well plate one day in advance for cell transfection. Through cell counting, the number of cells and cell viability were recorded, the cell suspension were taken at 2×10^5 cells per well, then a certain volume of DMEM medium containing 10% FBS was added and mixed evenly, 1 mL of mixture was added to each well for subsequent transfection experiment. • 3) After 24 hours, the medium was gently removed 30 minutes in advance by a pipette, 1 mL DPBS was added to each well for washing and then removed, then 300 μL serum-free Opti-MEM medium was added to each well for subsequent transfection experiments.
Subsequent steps are the same as the transfection protocol for PBMC cells. […]

Row | PDI [1] | Particle Size [1] | Entrapment Efficiency [2] [%] | Structure (SMILES) | Cell Viability [3] [%] | Positive Rate (EGFP) [3] [%] | Fluorescence Intensity [3]
1 | 0.133 | 96.9 | 95.02 | CCCCCCCCCCC(O)CN(CCN(CCN1CCN(C)CC1)CCN(CC(O)CCCCCCCCCC)CC(O)CCCCCCCCCC)CC(O)CCCCCCCCCC (stereo not drawn) [E-C12] | 84.8 | 56.4 | 0.69
2 | 0.133 | 77.7 | 92.31 | CCCCCCCCCCC(O)CN(CCOCCN(CCOCCN(CC(O)CCCCCCCCCC)CC(O)CCCCCCCCCC)CCN1CCN(C)CC1)CC(O)CCCCCCCCCC (stereo not drawn) [F-C12] | 87.1 | 63.9 | 0.28
3 | 0.172 | 89.3 | 89.95 | CCCCCCCCCCC(O)CN(CCOCCOCCN(CCOCCOCCN(CC(O)CCCCCCCCCC)CC(O)CCCCCCCCCC)CCN1CCN(C)CC1)CC(O)CCCCCCCCCC (stereo not drawn) [G-C12] | 92.9 | 83.1 | 0.29
4 | 0.114 | 83.8 | 88.38 | CCCCCCCCCCC(O)CN(CCN(CCN1CCN(CCO)CC1)CCN(CC(O)CCCCCCCCCC)CC(O)CCCCCCCCCC)CC(O)CCCCCCCCCC (stereo not drawn) [I-C12] | 98.5 | 63.9 | 0.05
5 | 0.180 | 120.3 | 87.59 | CCCCCCCCCCCCC(O)CN(CCN(CCN1CCN(CCO)CC1)CCN(CC(O)CCCCCCCCCCCC)CC(O)CCCCCCCCCCCC)CC(O)CCCCCCCCCCCC (stereo not drawn) [I-C14] | 97.0 | 62.7 | 0.05
6 | 0.105 | 99.7 | 92.88 | CCCCCCCCCCC(O)CN(CCOCCN(CCOCCN(CC(O)CCCCCCCCCC)CC(O)CCCCCCCCCC)CCN1CCN(CCO)CC1)CC(O)CCCCCCCCCC (stereo not drawn) [J-C12] | 81.8 | 62.6 | 0.04

Continued, molecule first:

Row | Structure (SMILES) | PDI [1] | Particle Size [1] | Entrapment Efficiency [2] [%] | Cell Viability [3] [%] | Positive Rate (EGFP) [3] [%] | Fluorescence Intensity [3]
7 | CCCCCCCCCCCCCCC(O)CN(CCN(CCN1CCN(C)CC1)CCN(CC(O)CCCCCCCCCCCCCC)CC(O)CCCCCCCCCCCCCC)CC(O)CCCCCCCCCCCCCC (stereo not drawn) [E-C16] | 0.107 | 76.9 | 91.51 | 94.4 | 59.9 | 0.71
8 | CCCCCCCCCCCCCCC(O)CN(CCOCCN(CCOCCN(CC(O)CCCCCCCCCCCCCC)CC(O)CCCCCCCCCCCCCC)CCN1CCN(C)CC1)CC(O)CCCCCCCCCCCCCC (stereo not drawn) [F-C16] | 0.099 | 91.9 | 92.39 | 96.8 | 60.3 | 0.17
9 | CCCCCCCCCCCCCCCCC(O)CN(CCOCCN(CCOCCN(CC(O)CCCCCCCCCCCCCCCC)CC(O)CCCCCCCCCCCCCCCC)CCN1CCN(C)CC1)CC(O)CCCCCCCCCCCCCCCC (stereo not drawn) [F-C18] | 0.081 | 77.2 | 80.61 | 93.5 | 61.5 | 0.67
10 | CCCCCCCCCCCCCCC(O)CN(CCOCCOCCN(CCOCCOCCN(CC(O)CCCCCCCCCCCCCC)CC(O)CCCCCCCCCCCCCC)CCN1CCN(C)CC1)CC(O)CCCCCCCCCCCCCC (stereo not drawn) [G-C16] | 0.102 | 78.2 | 85.40 | 94.5 | 79.6 | 0.54
11 | CCCCCCCCCCCCCCCCC(O)CN(CCOCCOCCN(CCOCCOCCN(CC(O)CCCCCCCCCCCCCCCC)CC(O)CCCCCCCCCCCCCCCC)CCN1CCN(C)CC1)CC(O)CCCCCCCCCCCCCCCC (stereo not drawn) [G-C18] | 0.195 | 99.8 | 80.79 | 95.2 | 63.9 | 0.63
12 | CCCCCCCCCCC(O)CN(CCOCCOCCOCCN(CCOCCOCCOCCN(CC(O)CCCCCCCCCC)CC(O)CCCCCCCCCC)CCN1CCN(C)CC1)CC(O)CCCCCCCCCC (stereo not drawn) [H-C12] | 0.136 | 95.9 | 94.13 | 86.0 | 74.3 | 0.78
13 | CCCCCCCCCCCCCCC(O)CN(CCOCCOCCOCCN(CCOCCOCCOCCN(CC(O)CCCCCCCCCCCCCC)CC(O)CCCCCCCCCCCCCC)CCN1CCN(C)CC1)CC(O)CCCCCCCCCCCCCC (stereo not drawn) [H-C16] | 0.162 | 95.5 | 86.56 | >99.0 | 59.0 | 0.77
14 | CCCCCCCCCCCCCCCCC(O)CN(CCOCCOCCOCCN(CCOCCOCCOCCN(CC(O)CCCCCCCCCCCCCCCC)CC(O)CCCCCCCCCCCCCCCC)CCN1CCN(C)CC1)CC(O)CCCCCCCCCCCCCCCC (stereo not drawn) [H-C18] | 0.143 | 73.8 | 80.61 | 97.4 | 81.9 | 0.38
15 | CCCCCCCCCCCCCCC(O)CN(CCN(CCN1CCN(CCO)CC1)CCN(CC(O)CCCCCCCCCCCCCC)CC(O)CCCCCCCCCCCCCC)CC(O)CCCCCCCCCCCCCC (stereo not drawn) [I-C16] | 0.147 | 96.3 | 91.60 | 81.3 | 68.7 | 0.06
16 | CCCCCCCCCCCCCCCCC(O)CN(CCN(CCN1CCN(CCO)CC1)CCN(CC(O)CCCCCCCCCCCCCCCC)CC(O)CCCCCCCCCCCCCCCC)CC(O)CCCCCCCCCCCCCCCC (stereo not drawn) [I-C18] | 0.109 | 72.3 | 83.06 | 86.0 | 66.4 | 0.04
